“Also recorded” adds a separate entry of the source. No end group written: not given here.
How the values were obtained:
[1] = system: spontaneous Type 1 diabetes; assay: Spontaneous type 1 diabetes in NOD mice; type: in vivo; conditions: iv at 6, 8, and 10 weeks of age; diabetes = blood glucose >250 mg/dL
Description: NOD mice were treated with either BSA (N=22) or insulin (N=23) coupled PLG particles via intravenous administration at 6, 8, and 10 weeks of age. The mice were then assayed for the development of diabetes which was defined as blood glucose >250 mg/dL.

[2] = system: cervical spinal cord of R-EAE mice; assay: Spinal cord histology and in vivo imaging in EAE
Description: An additional therapeutic tolerance strategy was performed by delivering PLP139-151-PLG or OVA323-339 PLG to mice. […] Mice were treated with PLP-PLG or OVA323-339-PLG and the tissue was retrieved at day 40. The cervical spinal cord was isolated and sectioned to investigate the immune response within the CNS, which underlies the pathology of R-EAE and multiple sclerosis.
Animals were treated with Complete Freund's Adjuvant (CFA), OVA323-339 PLG particles, or PLP139-151-PLG particles. The clinical scores and percent incidence of EAE were determined (FIG. 10B) and the spinal cords observed via in vivo imaging (FIGS. 10A and 11). […] The bar graphs give the numerical numbers to the signal strength shown in the brain and SC scans.

[3] = system: Relapsing Experimental Autoimmune Encephalitis (R-EAE); assay: Prophylactic tolerance induction in PLP139-151/CFA-induced R-EAE; type: in vivo, SJL/J mice; conditions: for clinical score (disease induction): 500 nm particles given on day −7 relative to immunization, N=5
Th1 and Th17 responses = assay: Induction of antigen-specific Th1 and Th17 responses (draining lymph node cells); type: in vivo, BALB/c mice; conditions: particles iv Day −7; measured at Day 10
Description: To determine whether administration of antigen-coupled particles inhibit induction of T-helper cells, either MOG35-55-PLG or OVA323-339-PLG particles were administered intravenously to BALB/c mice at Day −7. On Day 0, OVA323-339-PLG particles and Complete Freund's Adjuvant (CFA) were administered subcutaneously to the mice. The animals were re-stimulated with either MOG35-55-PLG or OVA323-339-PLG particles on Day 10 and the draining lymph node cells were isolated. The CPM and levels of IL-17, GM-CSF, IFN-γ, IL-10, and IL-4 were measured at Day 10.

[4] = system: Relapsing Experimental Autoimmune Encephalitis (R-EAE); assay: Treatment of R-EAE at day 10 by different routes of administration; type: in vivo, mice
Description: Experiments were conducted during development of embodiments of the present invention to investigate the ability of the PLG-PLP139-151 particles to treat disease rather than prevent disease, and to determine whether the route of administration affected the development of disease. Mice were immunized at day 0 with PLP139-151 and an adjuvant. Mice normally have maximal clinical scores at day 12-14. In this model, the mice were treated at day 10 with the PLG-PLP139-151 particles or with control PLG-OVA323-339 particles either via intravenous (iv) administration, intraperitoneal (ip) administration, subcutaneous (sc) administration, or orally. […] This is in contrast to animals treated with PLP139-151 polystyrene particles, whereby >70% of animals where observed to die from anaphylaxis.

[5] = system: PLP139-151/CFA-induced EAE; assay: Anaphylaxis on iv injection during EAE remission; type: in vivo, SJL/J mice; conditions: iv on day 21 (remission) relative to disease induction
Description: EAE was induced in six to eight week old female SJL/J mice by subcutaneous injection of PLP139-151 in CFA, and development of clinical disease was monitored and recorded (FIG. 5B). On day 21 relative to disease induction, mice were given iv injections of soluble PLP139-151 (clear squares), soluble OVA323-339 (clear circles), or the same peptides coupled to PLG nanoparticles (solids). Temperature of animals was monitored and recorded every 10 minutes for 1 hour following injection (FIG. 5A).

[6] = system: adoptive EAE (PLP139-151-activated blasts); assay: Therapeutic tolerance in adoptive transfer (and active) EAE; type: in vivo, SJL/J mice
Description: Experiments were conducted during development of embodiments of the present invention to investigate a second model of active disease termed adoptive transfer. Rather than immunizing the animals with the peptide, the lymphocytes from the spleen of mice with active disease were transferred to a recipient, who would subsequently develop disease. Experiments were conducted during development of embodiments of the present invention to characterize the ability of the PLG nanoparticles to deactivate the adoptively transferred activated effector cells.
Therapeutic tolerance induced by PLP139-151-PLG particles was compared in active and adoptive EAE. Adoptive EAE was induced in six to eight-week old female SJL/J mice by adoptive transfer of 2.5×10^6 PLP139-151-activated blasts. Mice were injected iv with PLP139-151 (squares) or OVA323-339 (circles) peptide coupled to 500 nm PLG nanoparticles 2 days (FIG. 14A), 14 days (FIG. 14C), 18 days (FIG. 14E), or 21 days (FIG. 14F) following disease induction. Clinical disease scores were compared to those following treatment with antigen-coupled splenocytes (FIG. 14A). Brain and spinal cord were collected from PLP139-151- or OVA323-339-tolerized mice for histological analysis on day 42. Sections from mice from panel A were stained for PLP protein and CD45 (FIG. 14B).
Mice were injected iv with PLP139-151-SP, PLP139-151-PLG, or OVA323-339-SP, or OVA323-339-PLG peptide coupled to 500 nm nanoparticles 10 days (FIG. 15A) or 2 days (FIG. 15B) following disease induction and the mean clinical score was determined.
SJL/J mice were injected i.v. with 500 nm PLG nanoparticles coupled with PLP139-151 (squares) or OVA323-339 (circles) 2 days following EAE induction by adoptive transfer. At the peak of disease (day 14) brains and spinal cords were removed and the number of lymphocytes (FIG. 16B), APCs (FIG. 16C), microglia (FIG. 16D), peripheral dendritic cells (FIG. 16E), myeloid dendritic cells (FIG. 16F) and macrophages (FIG. 16G) were enumerated by flow cytometry. The gating strategy for these populations is depicted in (FIG. 16A). CNS cell preparations were stimulated with PMA and ionomycin for 5 h prior to intracellular staining for IL-17A and IFN-γ (FIG. 16H).
To test the effect of treatment with an anti-PD-1 antibody on PLP139-151 induced tolerance in mice with adoptive EAE, on Day 0, mice received 3×10^6 PLP139-151 activated T-cell blasts via intravenous administration. On Day 2, they received PLP139-151 or OVA323-339 encapsulated in PLG particles via intravenous administration with either PBS or an anti-PD-1 antibody. On days 4, 6, 8, 10, and 12 all animals received either 250 μg anti-PD-1 antibody or PBS. […]

[7] = system: OVA/Alum pre-sensitized mice; assay: Anaphylaxis-induced temperature drop in OVA/Alum pre-sensitized animals; type: in vivo; conditions: iv on day 28; within 1 hour of delivery
Description: Due to the presence of active disease, anaphylaxis to the antigens is a concern, which could result in immediate mortality, and has been described with polystyrene bound particles. Anaphylaxis is associated with a significant drop in body temperature. To test whether intravenous administration of OVA-PLG induces an anaphylaxis-induced temperature drop in pre-sensitized animals, mice were immunized at day 0 with 10 μg OVA/Alum via intraperitoneal injection. On day 14, the mice were again immunized with 10 μg OVA/Alum via intraperitoneal injection, and then tolerized with OVA-PLG administered intravenously on day 21. On day 28, the mice were then tolerized with either OVA-PLG particles or OVA via intravenous administration.

Question: How did the “percentage of mice that did not develop diabetes over 300 days” value [1] turn out when “BSA coupled PLG particles: BSA coupled PLG particles (control) [reference compound]” was run?
Answer: The value was 22.7%.

Question: “OVA323-339-PLG: control peptide OVA323-339 coupled to PLG particles (KISQAVHAAHAEINEAG; also: coupled to PLG particles; UniProt P01012 323-339, looked up, fragment) [reference compound]” was tested. Which “staining for CD45, CD4, and CD11b in spinal cord” value ([2]; tissue retrieved at day 40) did it give?
Answer: Its value is “positive staining”.

Question: And the “clinical score (disease induction)” value [3]?
Answer: The value was “did not prevent disease induction”.

Question: What about the “Th1 and Th17 responses (CPM, IL-17, GM-CSF, IFN-γ, IL-10, IL-4)” value (Th1 and Th17 responses) of the same molecule?
Answer: The value was “inhibited the Th1 and Th17 responses”.

Question: Which “animals observed to die from anaphylaxis” value ([4]; mouse, in vivo) does the source give for “PLP139-151 polystyrene particles: PLP139-151 bound to polystyrene particles (CHCLGKWLGHPDK; cysteine pairing not given here; also: bound to polystyrene particles; UniProt P60202 139-151, looked up, fragment) [reference compound]” here?
Answer: Its value is over 70%.

Question: How did the “blood brain barrier (BBB) disruption and macrophage activation in the spinal cord” value ([2]; in vivo imaging (Angiosense, prosense)) turn out when “PLP139-151-PLG: immunodominant proteolipid protein PLP139-151 epitope coupled to 500 nm PLG nanoparticles” was run?
Answer: The value was “inhibits blood brain barrier (BBB) disruption and macrophage activation”.

Question: And the “immune cell infiltration, inflammation and demyelination of the spinal cord” value ([2]; tissue retrieved at day 40)?
Answer: The value was “inhibits cervical spinal cord inflammation and demyelination; also recorded: reduction in immune cell infiltration within the spinal cord”.

Question: What about the “staining for CD45, CD4, and CD11b in spinal cord” value ([2]; tissue retrieved at day 40) of the same molecule?
Answer: The value was “minimal staining”.

Question: What about the mean clinical scores ([4]; administered intravenously, at most time points) of the same molecule?
Answer: The mean clinical scores was 0.

Question: What about the “efficiency of tolerance by route of administration” value ([4]; treated at day 10, iv, ip, sc or oral) of the same molecule?
Answer: The value was “most efficient when the PLG-PLP139-151 particles are administered either intravenously or intraperitoneally”.

Question: What about the “clinical scores between days 20 and 30” value ([3]; 500 nm particles given on day −7, days 20 to 30) of the same molecule?
Answer: Its value is “under 1”.

Question: What about the “clinical score (disease induction)” value ([3]; listed as PLG-PLP139-151) of the same molecule?
Answer: Its value is “specifically prevented EAE development”.

Question: What about the “clinical score (disease induction)” value ([3]; listed as PLP139-151-PLGA) of the same molecule?
Answer: The value was 0.

Question: What about the “mean clinical score with anti-CD25 antibody compared with control IgG antibody” value ([3]; anti-CD25 on Day −9, particles plus antibody on Day −7) of the same molecule?
Answer: Its value is “greater mean clinical score”.

Question: What about the “delayed-type hypersensitivity (DTH) responses to immunizing PLP139-151 epitope” value ([3]; prophylactic treatment on day −7) of the same molecule?
Answer: Its value is “lack of delayed-type hypersensitivity (DTH) responses”.

Question: And the “induction of R-EAE by type of particle (mean clinical score, mean cumulative score)” value ([3]; treated on day −7, N=5 per group)?
Answer: Its value is “more effective in down-regulating induction of R-EAE”.

Question: And the anaphylaxis-associated mortality [5]?
Answer: The anaphylaxis-associated mortality was “does not result in any anaphylaxis-associated mortality”.

Question: What about the “tolerance induction (mean clinical score) in active and adoptive EAE” value ([6]; 500 nm particles iv after disease induction (10 days active, 2 days adoptive)) of the same molecule?
Answer: Its value is “tolerance is induced; also recorded: reduced disease; also recorded: induces tolerance”.

Question: And the “infiltration of central nervous system immune cells” value ([6]; iv 2 days after adoptive transfer, brains and spinal cords at day 14, flow cytometry)?
Answer: Its value is “drastically reduced”.

Question: And the mean clinical score ([6]; treated at day 2, all but two time points through day 40)?
Answer: Its mean clinical score is 0.

Question: And the “mean clinical score at the other two time points” value ([6]; treated at day 2, through day 40)?
Answer: Its value is 0.25.

Question: With “insulin coupled PLG particles: insulin coupled PLG particles” as the molecule, how does the “percentage of mice that did not develop diabetes over 300 days” value [1] read?
Answer: The value was 69.6%.

B1: soluble OVA: soluble ovalbumin given intravenously (protein, UniProt P01012 2-386, looked up)
Ovalbumin: GSIGAASMEFCFDVFKELKVHHANENIFYCPIAIMSALAMVYLGAKDSTRTQINKVVRFDKLPGFGDSIEAQCGTSVNVHSSLRDILNQITKPNDVYSFSLASRLYAEERYPILPEYLQCVKELYRGGLEPINFQTAADQARELINSWVESQTNGIIRNVLQPSSVDSQTAMVLVNAIVFKGLWEKAFKDEDTQAMPFRVTEQESKPVQMMYQIGLFRVASMASEKMKILELPFASGTMSMLVLLPDEVSGLEQLESIINFEKLTEWTSSNVMEERKIKVYLPRMKMEEKYNLTSVLMAMGITDVFSSSANLSGISSAESLKISQAVHAAHAEINEAGREVVGSAEAGVDAASVSEEFRADHPFLFCIKHIATNAVLFFGRCVSP
Question: B1 was tested. Which body temperature [7] did it give?
Answer: The body temperature was “decrease in temperature”.

From patent US12533403B2, “Peptide conjugated particles” (NORTHWESTERN UNIVERSITY, priority 2013, dated 2026)
